Assay results from US9018208B2, “Heterocycles as potassium channel modulators” (Icagen Inc., priority 2007, dated 2015).

Each compound was assayed on SH-SY5Y M-currents (KCNQ2, KCNQ3 and KCNQ5) (assay: SH-SY5Y native cell line FLIPR assay (voltage-sensitive dye DiBAC)). Conditions: FLIPR assay, SH-SY5Y native cell line; Table 2; read-out: SH-SY5Y EC50.
Assay type: cell-based, mouse neuroblastoma, rat glioma hybrid cell line
Method in brief: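 Response is peak DiBAC fluorescence change, normalised to the maximum from a positive control agent, sampled every 30 s over 25 min. Before compound addition, SH-SY5Y cells differentiated with PGE1 plus isomethylbutylxanthine were dye-loaded for 1 h in EBSS with […] DiBAC.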
CC(C)(C)CC(=O)Nc1nc2ccccn2c1-c1cccc(C(F)(F)F)c1 [Compound 336, 3,3-dimethyl-N-(3-(3-(trifluoromethyl)phenyl)imidazo[1,2-a]pyridin-2-yl)butanamide] gave an EC50 of 500 to 3000 nM. Compound CC(CC(=O)Nc1nc2ccccn2c1-c1cccc(C(F)(F)F)c1)C(F)(F)F (stereo not drawn) [Compound 337, 4,4,4-trifluoro-3-methyl-N-(3-(3-(trifluoromethyl)phenyl)imidazo[1,2-a]pyridin-2-yl)butanamide] has an EC50 of 500 to 3000 nM. In the case of O=C(Cc1ccc(F)cc1)Nc1nc2ccccn2c1-c1cccc(C(F)(F)F)c1 [Compound 338, 2-(4-fluorophenyl)-N-(3-(3-(trifluoromethyl)phenyl)imidazo[1,2-a]pyridin-2-yl)acetamide], the EC50 is reported as 500 to 3000 nM. COc1ccc2nc(NC(=O)CC(C)(C)C)c(-c3cccc(C(F)(F)F)c3)n2n1 [Compound 339, N-(6-methoxy-3-(3-(trifluoromethyl)phenyl)imidazo[1,2-b]pyridazin-2-yl)-3,3-dimethylbutanamide] gave an EC50 of 500 to 3000 nM. For CC(=O)O[C@H](C(=O)Nc1nc2ccc(F)cn2c1-c1ccc(C(F)(F)F)cc1)C(C)(C)C [Compound 340, (S)-1-(6-fluoro-3-(4-(trifluoromethyl)phenyl)imidazo[1,2-a]pyridin-2-ylamino)-3,3-dimethyl-1-oxobutan-2-yl acetate], the EC50 was 3000 to 10000 nM. For CC(C)(C)[C@H](O)C(=O)Nc1nc2ccc(F)cn2c1-c1ccc(C(F)(F)F)cc1 [Compound 341, (S)—N-(6-fluoro-3-(4-(trifluoromethyl)phenyl)imidazo[1,2-a]pyridin-2-yl)-2-hydroxy-3,3-dimethylbutanamide], the EC50 was 500 to 3000 nM. With CC(C)(C)CC(=O)Nc1nc2ccccn2c1-c1cccc(OC(F)(F)F)c1 [Compound 342, 3,3-dimethyl-N-(3-(3-(trifluoromethoxy)phenyl)imidazo[1,2-a]pyridin-2-yl)butanamide] the EC50 was < 500 nM. Compound CC(CC(=O)Nc1nc2ccccn2c1-c1cccc(OC(F)(F)F)c1)C(F)(F)F (stereo not drawn) [Compound 343, 4,4,4-trifluoro-3-methyl-N-(3-(3-(trifluoromethoxy)phenyl)imidazo[1,2-a]pyridin-2-yl)butanamide] has an EC50 of 500 to 3000 nM. O=C(Cc1ccc(F)cc1)Nc1nc2ccccn2c1-c1cccc(OC(F)(F)F)c1 [Compound 344, 2-(4-fluorophenyl)-N-(3-(3-(trifluoromethoxy)phenyl)imidazo[1,2-a]pyridin-2-yl)acetamide] was tested, and the EC50 was < 500 nM. With O=C(Nc1nc2ccc(F)cn2c1-c1ccc(C(F)(F)F)cc1)N1CCC(F)(F)CC1 [Compound 345, 4,4-difluoro-N-(6-fluoro-3-(4-(trifluoromethyl)phenyl)imidazo[1,2-a]pyridin-2-yl)piperidine-1-carboxamide] the EC50 was 500 to 3000 nM. COc1ccc2nc(NC(=O)CC(C)(C)C)c(-c3cccc(OC(F)(F)F)c3)n2n1 [Compound 346, N-(6-methoxy-3-(3-(trifluoromethoxy)phenyl)imidazo[1,2-b]pyridazin-2-yl)-3,3-dimethylbutanamide] was tested, and the EC50 was < 500 nM.

Same assay, conditions: SH-SY5Y native cell line, FLIPR assay (Table 3); read-out: SH-SY5Y EC50
Compound CC(C)(C)CC(=O)Nc1nc2ccc(F)cn2c1-c1ccccn1 [Compound 347, N-(6-fluoro-3-(pyridin-2-yl)imidazo[1,2-a]pyridin-2-yl)-3,3-dimethylbutanamide] has an EC50 of 3000 to 10000 nM. With CC(C)(C)CC(=O)Nc1nc2ccc(F)cn2c1-c1cccnc1 [Compound 348, N-(6-fluoro-3-(pyridin-3-yl)imidazo[1,2-a]pyridin-2-yl)-3,3-dimethylbutanamide] the EC50 was 3000 to 10000 nM. CC(C)(C)CC(=O)Nc1nc2ccc(F)cn2c1-c1ccc(F)nc1 [Compound 349, N-(6-fluoro-3-(6-fluoropyridin-3-yl)imidazo[1,2-a]pyridin-2-yl)-3,3-dimethylbutanamide] was tested, and the EC50 was 500 to 3000 nM. In the case of CC(C)(C)CC(=O)Nc1nc2ccc(F)cn2c1-c1ccc(C#N)nc1 [Compound 350, N-(3-(6-cyanopyridin-3-yl)-6-fluoroimidazo[1,2-a]pyridin-2-yl)-3,3-dimethylbutanamide], the EC50 is reported as 500 to 3000 nM.
